Laboratory results reported in patent US11739100B2, “2,3-dihydro-1h-imidazo{1,2-a}pyrimidin-5-one and this 1,2,3,4-tetrahydropyrimido{1,2-a}pyrimidin-6-one derivatives comprising a substituted morpholine, preparation thereof and pharmaceutical use thereof” (SANOFI, priority 2012, dated 2023).

Target: T1, recombinant Vps34 (Homo sapiens, UniProt Q8NEB9)
T1 construct: purchased Invitrogen PV5126
Assay: Phosphorylation of phosphatidylinositol (PI) by Vps34 in vitro, ADP detected by TR-FRET (HTRF Transcreener ADP)
Assay type: biochemical
Conditions: 10 μM ATP, 55 μg/ml PI, approximately 3 nM Vps34, 1 hour at ambient temperature; absolute IC50, mean of two independent experiments; read-out: IC50 activity range

T1 sequence (Q8NEB9 whole entry): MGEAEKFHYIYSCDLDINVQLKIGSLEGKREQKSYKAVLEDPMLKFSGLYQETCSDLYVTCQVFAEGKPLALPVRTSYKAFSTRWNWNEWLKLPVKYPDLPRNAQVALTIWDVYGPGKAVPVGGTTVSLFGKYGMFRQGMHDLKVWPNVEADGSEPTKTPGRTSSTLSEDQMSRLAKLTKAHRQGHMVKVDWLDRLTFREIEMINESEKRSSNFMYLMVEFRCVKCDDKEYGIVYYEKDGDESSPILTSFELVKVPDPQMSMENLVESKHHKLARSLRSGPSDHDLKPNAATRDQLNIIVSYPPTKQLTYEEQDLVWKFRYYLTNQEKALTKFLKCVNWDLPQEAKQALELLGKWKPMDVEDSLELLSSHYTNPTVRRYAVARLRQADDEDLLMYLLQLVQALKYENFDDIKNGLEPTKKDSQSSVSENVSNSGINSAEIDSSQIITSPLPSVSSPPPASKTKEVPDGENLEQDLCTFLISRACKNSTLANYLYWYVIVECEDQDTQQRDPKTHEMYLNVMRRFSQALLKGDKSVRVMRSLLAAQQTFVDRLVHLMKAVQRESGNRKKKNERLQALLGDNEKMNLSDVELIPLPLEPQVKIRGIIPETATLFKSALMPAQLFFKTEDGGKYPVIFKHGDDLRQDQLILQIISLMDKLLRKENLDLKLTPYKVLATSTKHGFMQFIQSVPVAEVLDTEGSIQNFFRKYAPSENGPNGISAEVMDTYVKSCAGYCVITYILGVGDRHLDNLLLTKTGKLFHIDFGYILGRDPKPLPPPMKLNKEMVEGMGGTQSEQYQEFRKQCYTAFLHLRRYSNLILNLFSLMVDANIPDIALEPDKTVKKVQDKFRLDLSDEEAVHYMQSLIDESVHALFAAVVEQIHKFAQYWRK

IC50 [nM] | SMILES
< 10 | C[C@@H]1COCCN1c1nc2n(c(=O)c1F)CC[C@@H](C(F)(F)F)N2Cc1ccc(Cl)nc1 [Example 52, (S)-9-(6-Chloro-pyridin-3-ylmethyl)-3-fluoro-2-((R)-3-methyl-morpholin-4-yl)-8-trifluoromethyl-6,7,8,9-tetrahydro-pyrimido[1,2-a]-pyrimidin-4-one]
< 10 | C[C@@H]1COCCN1c1cc(=O)n2c(n1)N(Cc1ccnc(Cl)c1)[C@H](C(F)(F)F)CC2 [Example 76, (S)-9-(2-Chloro-pyridin-4-ylmethyl)-2-((R)-3-methyl-morpholin-4-yl)-8-trifluoromethyl-6,7,8,9-tetrahydro-pyrimido[1,2-a]-pyrimidin-4-one]
< 10 | C[C@@H]1COCCN1c1cc(=O)n2c(n1)N(Cc1ccnc(Cl)c1)CC[C@@H]2C(F)(F)F [Example 112, (R)-9-(2-Chloro-pyridin-4-ylmethyl)-2-((R)-3-methyl-morpholin-4-yl)-6-trifluoromethyl-6,7,8,9-tetrahydro-pyrimido[1,2-a]-pyrimidin-4-one]
< 10 | CC(C)C(O)CN1c2nc(N3CCOC[C@H]3C)cc(=O)n2CC[C@H]1C(F)(F)F (stereo partly drawn) [Example 287, (S)-9-(2-Hydroxy-3-methylbutyl)-2-((R)-3-methylmorpholin-4-yl)-8-trifluoromethyl-6,7,8,9-tetrahydro-pyrimido[1,2-a]-pyrimidin-4-one]
< 10 | C[C@@H]1COCCN1c1cc(=O)n2c(n1)N(c1cccc(F)c1)[C@H](C(F)(F)F)CC2 [Example 75, (S)-9-(3-Fluoro-phenyl)-2-((R)-3-methylmorpholin-4-yl)-8-trifluoromethyl-6,7,8,9-tetrahydro-pyrimido[1,2-a]-pyrimidin-4-one]
< 10 | C[C@@H]1COCCN1c1cc(=O)n2c(n1)N(CC(O)c1ccccn1)[C@H](C(F)(F)F)CC2 (single isomer, unassigned) [Example 212]
< 10 | Cc1nc(CN2c3nc(N4CCOC[C@H]4C)cc(=O)n3CC[C@@]2(C)C(F)(F)F)no1 [Example 211, (S)-8-Methyl-2-((R)-3-methylmorpholin-4-yl)-9-(5-methyl-[1,2,4]oxadiazol-3-yl-methyl)-8-trifluoromethyl-6,7,8,9-tetrahydro-pyrimido[1,2-a]-pyrimidin-4-one]
10 to 100 | C[C@@H]1COCCN1c1nc2n(c(=O)c1F)CCC(C)(C)N2Cc1ccnn1C(F)F [Example 74, 9-(2-Difluoromethyl-2H-pyrazol-3-yl-methyl)-3-fluoro-8,8-dimethyl-2-((R)-3-methylmorpholin-4-yl)-6,7,8,9-tetrahydro-pyrimido[1,2-a]-pyrimidin-4-one]
10 to 100 | Cc1nnsc1CN1c2nc(N3CCOC[C@H]3C)cc(=O)n2CC[C@H]1C(F)(F)F [Example 125, (S)-2-((R)-3-Methyl-morpholin-4-yl)-9-(4-methyl-[1,2,3]thiadiazol-5-yl-methyl)-8-trifluoromethyl-6,7,8,9-tetrahydro-pyrimido[1,2-a]-pyrimidin-4-one]
< 10 | CCC(=O)CN1CC[C@H](C(F)(F)F)n2c1nc(N1CCOC[C@H]1C)c(F)c2=O [Example 29, (R)-3-Fluoro-2-((R)-3-methylmorpholin-4-yl)-9-(2-oxobutyl)-6-trifluoromethyl-6,7,8,9-tetrahydro-pyrimido[1,2-a]-pyrimidin-4-one]
< 10 | C[C@@H]1COCCN1c1cc(=O)n2c(n1)N(Cc1cocn1)[C@](C)(C(F)(F)F)C2 [Example 183, (S)-2-Methyl-7-((R)-3-methylmorpholin-4-yl)-1-oxazol-4-ylmethyl-2-trifluoromethyl-2,3-dihydro-1H-imidazo[1,2-a]-pyrimidin-5-one]
< 10 | C[C@@H]1COCCN1c1nc2n(c(=O)c1F)CC[C@@H](C(F)(F)F)N2Cc1nccs1 [Example 232, (S)-3-Fluoro-2-((R)-3-methylmorpholin-4-yl)-9-thiazol-2-ylmethyl-8-trifluoromethyl-6,7,8,9-tetrahydro-pyrimido[1,2-a]-pyrimidin-4-one]
10 to 100 | C[C@@H]1COCCN1c1cc(=O)n2c(n1)N(CC(=O)C1CCCN1C(=O)OC(C)(C)C)[C@H](C(F)(F)F)CC2 (stereo partly drawn) [Example 261, 2-{2-[(S)-8-((R)-3-Methylmorpholin-4-yl)-6-oxo-2-trifluoromethyl-3,4-dihydro-2H,6H-pyrimido[1,2-a]-pyrimidin-1-yl]acetyl}-pyrrolidine-1-carboxylic acid tert-butyl ester]
< 10 | CC(C)OCCN1c2nc(N3CCOC[C@H]3C)cc(=O)n2CC[C@H]1C(F)(F)F [Example 300, (S)-9-(2-Isopropoxy-ethyl)-2-((R)-3-methyl-morpholin-4-yl)-8-trifluoromethyl-6,7,8,9-tetrahydro-pyrimido[1,2-a]-pyrimidin-4-one]
< 10 | Cc1ccc(N2c3nc(N4CCOC[C@H]4C)cc(=O)n3CC[C@H]2C(F)(F)F)cn1 [Example 83, (S)-2-((R)-3-Methyl-morpholin-4-yl)-9-(6-methylpyridin-3-yl)-8-trifluoromethyl-6,7,8,9-tetrahydro-pyrimido[1,2-a]-pyrimidin-4-one]
< 10 | C[C@@H]1COCCN1c1cc(=O)n2c(n1)N(Cc1nnc(C(F)(F)F)o1)[C@H](C(F)(F)F)CC2 [Example 140, (S)-2-((R)-3-Methyl-morpholin-4-yl)-8-trifluoromethyl-9-(5-trifluoromethyl-[1,3,4]oxadiazol-2-yl-methyl)-6,7,8,9-tetrahydro-pyrimido[1,2-a]-pyrimidin-4-one]
< 10 | C[C@@H]1COCCN1c1cc(=O)n2c(n1)N(Cc1cccc(F)n1)[C@H](C(F)(F)F)CC2 [Example 224, (S)-9-(6-Fluoropyridin-2-ylmethyl)-2-((R)-3-methylmorpholin-4-yl)-8-trifluoromethyl-6,7,8,9-tetrahydro-pyrimido[1,2-a]-pyrimidin-4-one]
< 10 | C[C@@H]1COCCN1c1nc2n(c(=O)c1F)CC[C@@H](C(F)(F)F)N2Cc1ccc(F)nc1 [Example 51, (S)-3-Fluoro-9-(6-fluoropyridin-3-yl-methyl)-2-((R)-3-methylmorpholin-4-yl)-8-trifluoromethyl-6,7,8,9-tetrahydro-pyrimido[1,2-a]-pyrimidin-4-one]
< 10 | C[C@@H]1COCCN1c1cc(=O)n2c(n1)N(CC(=O)C1CCCC1)[C@H](C(F)(F)F)CC2 [Example 244, (S)-9-(2-Cyclopentyl-2-oxoethyl)-2-((R)-3-methylmorpholin-4-yl)-8-trifluoromethyl-6,7,8,9-tetrahydro-pyrimido[1,2-a]-pyrimidin-4-one]
> 100 | O=c1cc(N2CCOC(CF)C2)nc2n1CC[C@@H](C(F)(F)F)N2Cc1ccccc1 (single isomer, unassigned) [Example 194]
< 10 | CC1COCC(C)N1c1cc(=O)n2c(n1)N(Cc1ccc(Cl)s1)[C@H](C(F)(F)F)CC2 (stereo in doubt) [Example 152, (S)-9-(5-Chloro-thiophen-2-ylmethyl)-2-((3S,5S)-3,5-dimethylmorpholin-4-yl)-8-trifluoromethyl-6,7,8,9-tetrahydro-pyrimido[1,2-a]-pyrimidin-4-one]
< 10 | CC(C)Oc1ncccc1CN1c2nc(N3CCOC[C@H]3C)cc(=O)n2CC[C@H]1C(F)(F)F [Example 230, (S)-9-(2-Isopropoxy-pyridin-3-ylmethyl)-2-((R)-3-methyl-morpholin-4-yl)-8-trifluoromethyl-6,7,8,9-tetrahydro-pyrimido[1,2-a]-pyrimidin-4-one]
> 100 | CCC1CN(c2cc(=O)n3c(n2)N(CC(=O)c2ccccn2)[C@H](C(F)(F)F)CC3)CCO1 (single isomer, unassigned) [Example 172]
< 10 | C[C@@H]1COCCN1c1cc(=O)n2c(n1)N(CC(=O)c1ccccn1)[C@H](C(F)(F)F)CC2 [Example 1, (S)-2-((R)-3-Methyl-morpholin-4-yl)-9-(2-oxo-2-pyridin-2-yl-ethyl)-8-trifluoromethyl-6,7,8,9-tetrahydro-pyrimido[1,2-a]-pyrimidin-4-one]
10 to 100 | CNC(=O)CN1c2nc(N3CCOC[C@H]3C)cc(=O)n2CC[C@H]1C(F)(F)F [Example 223, N-Methyl-2-[(S)-8-((R)-3-methylmorpholin-4-yl)-6-oxo-2-trifluoromethyl-3,4-dihydro-2H,6H-pyrimido[1,2-a]-pyrimidin-1-yl]-acetamide]
< 10 | C[C@@H]1COCCN1c1cc(=O)n2c(n1)N(Cc1nc(C(F)(F)F)no1)CC[C@@H]2C(F)(F)F [Example 144, (R)-2-((R)-3-Methyl-morpholin-4-yl)-6-trifluoromethyl-9-(3-trifluoromethyl-[1,2,4]oxadiazol-5-yl-methyl)-6,7,8,9-tetrahydro-pyrimido[1,2-a]-pyrimidin-4-one]
< 10 | C[C@@H]1COCCN1c1cc(=O)n2c(n1)N(Cc1ccc(Cl)nc1)[C@H](C(F)(F)F)CC2 [Example 35, (S)-9-(6-Chloro-pyridin-3-ylmethyl)-2-((R)-3-methyl-morpholin-4-yl)-8-trifluoromethyl-6,7,8,9-tetrahydro-pyrimido[1,2-a]-pyrimidin-4-one]
< 10 | C[C@@H]1COCCN1c1cc(=O)n2c(n1)N(Cc1ccc(Cl)s1)[C@H](C(F)(F)F)CC2 [Example 98, (S)-9-(5-Chloro-thiophen-2-ylmethyl)-2-((R)-3-methyl-morpholin-4-yl)-8-trifluoromethyl-6,7,8,9-tetrahydro-pyrimido[1,2-a]-pyrimidin-4-one]
10 to 100 | O=c1cc(N2CC3CCC(C2)O3)nc2n1CC[C@@H](C(F)(F)F)N2Cc1ccc(Cl)s1 [Example 162, (S)-9-(5-Chloro-thiophen-2-ylmethyl)-2-(8-oxa-3-aza-bicyclo[3.2.1]oct-3-yl)-8-trifluoromethyl-6,7,8,9-tetrahydro-pyrimido[1,2-a]-pyrimidin-4-one]
< 10 | C[C@@H]1COCCN1c1cc(=O)n2c(n1)N(CCC(C)(C)F)[C@H](C(F)(F)F)CC2 [Example 267, (S)-9-(3-Fluoro-3-methylbutyl)-2-((R)-3-methylmorpholin-4-yl)-8-trifluoromethyl-6,7,8,9-tetrahydro-pyrimido[1,2-a]-pyrimidin-4-one]
